Assay results reported in paper PMC10573892, “β-Lactam TRPM8 Antagonists Derived from Phe-Phenylalaninol Conjugates: Structure–Activity Relationships and Antiallodynic Activity” (International Journal of Molecular Sciences, 2023).

Assays:
hCGRPR = hCGRPR (Homo sapiens, UniProt O60894+Q16602); assay: Radioligand binding at CGRP receptor; conditions: radioligand [125]hGCRPα
From the text: (§1) Furthermore, the investigation extended to measuring the binding affinity of compound 34 to calcitonin gene-related peptide hCGRPR, cannabinoid hCB2 and muscarinic hM3 receptors, which are all relevant to different pain conditions.

hTRPV3 = biological target: T1, hTRPV3 (Homo sapiens, UniProt Q8NET8); assay: TRPV3 channel Ca2+ microfluorimetry (2-APB 30 μM); format: cell-based; conditions: agonist 2-APB 30 μM
T1 construct: Eurofins-CEREP or Eurofins-PANLABS (contract assay)
T1 sequence (Q8NET8 1-790): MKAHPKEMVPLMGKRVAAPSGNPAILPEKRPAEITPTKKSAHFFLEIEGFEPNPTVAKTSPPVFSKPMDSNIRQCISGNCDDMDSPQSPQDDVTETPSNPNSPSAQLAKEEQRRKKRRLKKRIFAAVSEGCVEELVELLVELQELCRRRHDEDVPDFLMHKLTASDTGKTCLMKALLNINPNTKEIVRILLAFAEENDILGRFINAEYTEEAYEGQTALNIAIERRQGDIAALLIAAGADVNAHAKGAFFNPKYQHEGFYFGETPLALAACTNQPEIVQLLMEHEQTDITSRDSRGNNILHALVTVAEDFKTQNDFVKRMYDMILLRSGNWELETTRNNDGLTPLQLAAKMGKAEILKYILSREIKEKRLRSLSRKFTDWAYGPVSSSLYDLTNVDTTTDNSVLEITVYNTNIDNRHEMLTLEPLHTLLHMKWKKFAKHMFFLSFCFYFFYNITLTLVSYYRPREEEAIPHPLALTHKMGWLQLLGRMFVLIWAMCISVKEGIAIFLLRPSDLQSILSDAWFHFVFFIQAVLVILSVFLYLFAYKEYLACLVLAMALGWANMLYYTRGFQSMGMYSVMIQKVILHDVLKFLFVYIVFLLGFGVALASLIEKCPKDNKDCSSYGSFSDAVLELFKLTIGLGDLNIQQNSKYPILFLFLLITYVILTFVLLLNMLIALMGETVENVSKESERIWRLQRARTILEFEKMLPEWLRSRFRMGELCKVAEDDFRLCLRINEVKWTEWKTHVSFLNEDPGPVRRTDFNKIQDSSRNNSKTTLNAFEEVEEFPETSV
From the text: The effects of compound 34 have been evaluated on different ion channels and receptors implicated in pain-related processes to assess the selectivity for TRPM8 channels. First, some TRP channels that play a role in temperature integration and nociception were selected, including hTRPV1, hTRPV3, hTRPA1 and TRPM3. Additionally, the evaluation encompassed the hASIC3 channel with widespread distribution within the peripheral nervous system and contributions to the excitability of primary sensory neurons. In each instance, the compound was subjected to evaluation at a consistent concentration of 10 µM.
(§2) Calcium fluorometry, Patch-Clamp assays and in vivo experiments were performed using the methodology previously described for TRPM8 [35] or TRPM3 [61]. In the Patch -Clamp experiments, the intracellular pipette solution contained (in mM) 140 KCl, 5 EGTA, and 10 mM HEPES, adjusted to pH 7.2 with KOH, and the extracellular solution contained (in mM) 140 NaCl, 2 CaCl2, 1 MgCl2, 10 D-glucose and 10 HEPES, adjusted to pH 7.4 with NaOH. Selectivity against TRPV1, TRPV3, TRPA1 and ASIC3 was subcontracted to Eurofins-CEREP or Eurofins-PANLABS (see ref. [35] for more details).

hM3 = hM3 (Homo sapiens, UniProt P20309); assay: Radioligand binding at muscarinic M3 receptor; conditions: radioligand [3H]4-DMAP
Sequence of hM3 (P20309 whole entry): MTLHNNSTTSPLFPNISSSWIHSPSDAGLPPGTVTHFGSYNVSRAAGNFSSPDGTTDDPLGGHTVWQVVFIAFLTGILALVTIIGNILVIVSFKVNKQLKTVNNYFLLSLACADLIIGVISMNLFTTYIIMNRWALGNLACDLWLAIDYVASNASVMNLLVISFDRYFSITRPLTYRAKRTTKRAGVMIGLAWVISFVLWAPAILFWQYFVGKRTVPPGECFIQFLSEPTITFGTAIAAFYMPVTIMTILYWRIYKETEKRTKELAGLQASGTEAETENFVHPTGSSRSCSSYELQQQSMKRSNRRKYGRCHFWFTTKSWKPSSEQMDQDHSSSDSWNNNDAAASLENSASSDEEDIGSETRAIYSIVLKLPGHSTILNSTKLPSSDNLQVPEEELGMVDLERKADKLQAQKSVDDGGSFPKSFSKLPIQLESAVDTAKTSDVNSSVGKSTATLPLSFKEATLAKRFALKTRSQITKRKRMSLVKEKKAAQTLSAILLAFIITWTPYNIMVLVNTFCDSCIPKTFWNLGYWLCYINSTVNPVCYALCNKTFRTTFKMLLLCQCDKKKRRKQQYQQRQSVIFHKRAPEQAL
From the text: as §1

rTRPM8 = biological target: T2, rTRPM8 (Rattus norvegicus, UniProt Q8R455); assay: Patch-Clamp electrophysiology on single HEK293 cells expressing rat TRPM8; format: cell-based; conditions: activation by 100 µM menthol; holding voltage −60 mV
T2 construct: expressed in transfected cells
T2 sequence (Q8R455 whole entry): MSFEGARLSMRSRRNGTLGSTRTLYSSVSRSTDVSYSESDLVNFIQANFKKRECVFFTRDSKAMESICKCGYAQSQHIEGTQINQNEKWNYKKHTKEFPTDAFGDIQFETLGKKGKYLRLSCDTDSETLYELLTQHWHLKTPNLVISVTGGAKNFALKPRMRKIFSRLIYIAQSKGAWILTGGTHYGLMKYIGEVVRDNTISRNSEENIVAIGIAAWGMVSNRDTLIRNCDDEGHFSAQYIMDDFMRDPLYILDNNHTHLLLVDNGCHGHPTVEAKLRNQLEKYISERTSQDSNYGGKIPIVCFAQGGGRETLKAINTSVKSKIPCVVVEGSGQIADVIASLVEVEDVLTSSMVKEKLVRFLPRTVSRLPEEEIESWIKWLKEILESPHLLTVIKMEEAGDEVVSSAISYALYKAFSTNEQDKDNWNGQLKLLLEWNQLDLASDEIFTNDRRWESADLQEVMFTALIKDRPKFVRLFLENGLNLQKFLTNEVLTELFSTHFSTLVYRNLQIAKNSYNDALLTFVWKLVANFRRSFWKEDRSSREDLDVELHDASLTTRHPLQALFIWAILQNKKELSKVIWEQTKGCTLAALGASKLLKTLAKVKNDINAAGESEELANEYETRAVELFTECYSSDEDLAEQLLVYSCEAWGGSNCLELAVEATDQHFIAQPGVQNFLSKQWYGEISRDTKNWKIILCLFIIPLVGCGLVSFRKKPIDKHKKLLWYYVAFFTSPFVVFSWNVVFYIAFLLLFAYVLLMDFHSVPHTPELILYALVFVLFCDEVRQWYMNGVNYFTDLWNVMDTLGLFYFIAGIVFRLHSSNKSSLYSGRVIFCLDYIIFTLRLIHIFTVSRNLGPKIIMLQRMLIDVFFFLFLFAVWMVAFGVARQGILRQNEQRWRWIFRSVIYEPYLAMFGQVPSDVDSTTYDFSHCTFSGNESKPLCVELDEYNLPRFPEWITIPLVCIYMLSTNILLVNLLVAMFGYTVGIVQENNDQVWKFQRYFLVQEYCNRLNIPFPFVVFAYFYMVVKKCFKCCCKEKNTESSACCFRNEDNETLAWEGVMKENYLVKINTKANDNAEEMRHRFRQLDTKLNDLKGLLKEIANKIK
From the text: A recent research study using Patch-Clamp, among other techniques, established that menthol occupies a cavity within the TRPM8 S1–S4 transmembrane helix, with the OH group forming an H-bond with the δ-NH of R842 residue, and Van der Waals interactions among the methyl groups of the ^iPr moiety and residues I846 and L843 [41].
This is evident by a negligible current at negative potentials and a linear intensification of the ohmic current at positive voltages. When applying compound 34 at a concentration of […], a noticeable reduction in menthol-induced activity at depolarizing voltages was observed (indicated by the red line) compared to menthol alone. Dose–response relationships for both tested compounds were established through triplicate experiments at various concentrations, applying a holding voltage of −60 mV (as shown in Figure 2B).
as §2
Figure 2 Compound 34 blocks TRPM8-mediated responses evoked by menthol in rTRPM8-expressing HEK293 cells. (A) IV curves obtained after exposure to vehicle solution (green trace), 100 µM menthol (blue trace) and 100 µM menthol + 10 µM 34 (red trace). Peak current data were expressed as pA/pF (to allow comparison among different size cells). Each point is the mean ± SEM of n = 15. (B) Concentration/response curves for rTRPM8 current blockade by 34 at a holding voltage of −60 mV. […]

hTRPM8 = biological target: T3, hTRPM8 (Homo sapiens, UniProt Q7Z2W7); assay: Ca2+ microfluorimetry in HEK293 cells expressing human TRPM8; format: cell-based; conditions: activation by 100 µM menthol; read-out: Ca^2+ Microfluorimetry Assays hTRPM8 IC50
T3 construct: expressed in transfected cells; host or cells: HEK293
T3 sequence (Q7Z2W7 whole entry): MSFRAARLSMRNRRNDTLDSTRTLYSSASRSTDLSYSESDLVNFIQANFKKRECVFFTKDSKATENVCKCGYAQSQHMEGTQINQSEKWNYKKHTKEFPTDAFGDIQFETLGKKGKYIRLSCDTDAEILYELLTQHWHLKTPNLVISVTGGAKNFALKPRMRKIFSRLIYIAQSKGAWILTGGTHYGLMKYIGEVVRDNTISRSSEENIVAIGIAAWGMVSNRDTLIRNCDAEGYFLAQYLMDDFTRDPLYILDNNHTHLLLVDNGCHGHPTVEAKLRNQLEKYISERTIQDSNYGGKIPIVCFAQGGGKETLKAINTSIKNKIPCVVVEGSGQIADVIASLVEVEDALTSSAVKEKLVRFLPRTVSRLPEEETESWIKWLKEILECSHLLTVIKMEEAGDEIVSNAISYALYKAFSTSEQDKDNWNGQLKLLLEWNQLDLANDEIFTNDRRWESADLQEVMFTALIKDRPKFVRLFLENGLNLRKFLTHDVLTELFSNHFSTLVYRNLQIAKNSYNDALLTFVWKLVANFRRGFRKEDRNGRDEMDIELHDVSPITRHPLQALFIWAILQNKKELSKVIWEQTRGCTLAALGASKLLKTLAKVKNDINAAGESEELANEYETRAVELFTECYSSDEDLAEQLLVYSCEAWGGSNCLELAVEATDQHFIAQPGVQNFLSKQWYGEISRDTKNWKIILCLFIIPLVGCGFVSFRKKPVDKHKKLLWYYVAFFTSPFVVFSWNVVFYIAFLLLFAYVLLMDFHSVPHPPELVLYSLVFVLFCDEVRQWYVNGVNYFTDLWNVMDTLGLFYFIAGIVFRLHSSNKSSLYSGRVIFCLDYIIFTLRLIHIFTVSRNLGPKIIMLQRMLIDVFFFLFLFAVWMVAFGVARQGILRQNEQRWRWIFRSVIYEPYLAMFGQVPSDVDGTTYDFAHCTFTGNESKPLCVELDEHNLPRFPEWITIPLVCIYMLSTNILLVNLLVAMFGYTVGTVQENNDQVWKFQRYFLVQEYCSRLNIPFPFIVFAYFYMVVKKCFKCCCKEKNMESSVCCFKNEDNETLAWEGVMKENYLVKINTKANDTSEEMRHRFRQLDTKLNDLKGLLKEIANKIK
Protocol: To further characterize this family of compounds, calcium microfluorimetry assays were conducted using the HEK293 cell line, which expresses the human isoform of the TRPM8 channel. Amide derivatives 34 and 35 were selected, and their outcomes were compared with those of the model compound 1 (Table 4). […] This behavior is not particular of these β-lactams, but it is similar to those observed for other TRPM8 antagonists.
as §2

[1] = test system: dorsal root ganglia (DRG) sensory neurons; assay: Resting membrane potential of DRG sensory neurons (current clamp Patch-Clamp); format: cell-based; conditions: 10 µM
Protocol: We also investigated the effect of β-lactams derivatives on the resting membrane potential (RMP) of dorsal root ganglia (DRG) sensory neurons.
(A) Representative recordings of resting membrane potential measured under current clamp configuration. The traces show the action potentials (APs) firings from DRG neurons elicited by 100 μM menthol (left trace) or in the presence of vehicle (0.5% DMSO) or the β-lactams derivatives ([…]). (B) Changes in the Vm in the absence and in the presence of 10 μM of the β-lactams derivatives. Data were analyzed by one-way ANOVA followed by Bonferroni post hoc test for multiple comparisons (ns = no significance, **** p < = 0.0001) and given as mean ± SEM; n ≥ 40 cells from 4 cultures.

Sequence of hCGRPR (Q16602 23-461): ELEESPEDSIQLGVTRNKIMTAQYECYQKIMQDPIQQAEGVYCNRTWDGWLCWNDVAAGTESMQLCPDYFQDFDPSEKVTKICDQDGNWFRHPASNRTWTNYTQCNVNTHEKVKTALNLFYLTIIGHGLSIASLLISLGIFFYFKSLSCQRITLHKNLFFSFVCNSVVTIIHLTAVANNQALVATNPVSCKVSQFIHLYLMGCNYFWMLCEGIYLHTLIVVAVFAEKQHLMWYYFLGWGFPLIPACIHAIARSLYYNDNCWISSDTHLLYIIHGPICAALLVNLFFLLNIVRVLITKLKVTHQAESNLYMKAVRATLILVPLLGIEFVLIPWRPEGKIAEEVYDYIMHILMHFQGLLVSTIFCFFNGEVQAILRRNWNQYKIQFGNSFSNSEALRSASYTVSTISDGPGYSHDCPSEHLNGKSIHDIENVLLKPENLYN
Sequence of hCGRPR (O60894 27-148): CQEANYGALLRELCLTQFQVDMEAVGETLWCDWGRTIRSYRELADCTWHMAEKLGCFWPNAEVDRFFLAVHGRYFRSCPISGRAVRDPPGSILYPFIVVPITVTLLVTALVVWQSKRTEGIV

inhibition at 10 µM (hCGRPR): -11.9 ± 5.2% | inhibition at 10 µM (hTRPV3): 17.3 ± 5.7% | inhibition at 10 µM (hM3): 5.2 ± 3.2% | IC50 (rTRPM8): 0.16 µM | IC50 (hTRPM8): 2.58 ± 1.24 µM
SMILES: CC(C)CNC(=O)[C@]1(Cc2ccccc2)[C@H](C)C(=O)N1C[C@H](Cc1ccccc1)N(Cc1ccccc1)Cc1ccccc1 [Compound 34, 4S-Benzyl-4-[N-(iso-butyl)-carbamoyl]-3S-methyl-1-[(2′S-dibenzylamino-3′-phenyl)prop-1′-yl]-2-oxoazetidine]
effect on resting membrane potential (RMP) [1]: did not alter the RMP
